Data: US20210108199A1, “Treatment for aggressive cancers by targeting C9ORF72” (The Trustees of Columbia University in the City of New York, priority 2017, published 2021)

What was measured:
Format in all cases: cell-based
U87 cells [1] = assay: Transmission electron microscopy of vacuoles; details: 72 hours of KD
Method: Since endocytic vacuoles (including macropinosomes) are known to have a single membrane U87 cells treated with control and siC9 siRNA (SEQ ID NO:631) were imaged using transmission electron microscopy (TEM). […] FIG. 13 is a set of representative TEM images of U87 cells treated with Control (siCtrl) and C9 (siC9) siRNA after 72 hours of KD. One asterisk indicates representative vacuoles; two asterisks represent membrane folding. The white boxes in FIG. 13A and FIG. 13B show locations for the digital zoomed-in images below, in FIG. 13C and FIG. 13D. The scale bar represents 5 μm.

U87 cells [2] = assay: FACS cell cycle analysis; details: day three
Method: U87 cells were treated with control and C9 siRNA for 3 days. On day 3, cells were fixed in 70% ethanol at −20° C., re-suspended in phosphate-citrate buffer (192 mM Na2HPO4, 4 mM citric acid), and incubated for 30 minutes in PBS containing 10 μg/mL propidium iodide (PI) and 10 μg/mL RNase A. Data were collected on a FACSCalibur™ flow cytometer (Becton Dickinson™). Data analysis was performed using FlowJo™.
To validate the cell viability assays, C9 was knocked down in U87 cells and the cells were analyzed by FACS. […] The bar plots represent the cell cycle measurement (subG1-purple, G2-green, S-red, G1-blue) of three independent biological replicates upon control (siCtrl) or C9 (siC9; SEQ ID NO:631) siRNA. Error bars represent S.E.M.

p53 null U87 cells = assay: Mitochondrial imaging in p53 null U87 clones; details: p53 KO U87 clones KO #4 and KO #9
Text: C9 then was knocked down in two p53 KO U87 cells lines which were imaged to show whether mitochondrial disorganization depends on p53. […] FIG. 38 is a set of confocal microscopy images of two p53 null U87 clones (KO #4 and KO #9) treated with control and C9 siRNA, stained with Mitotracker red.

U87 cells [3] = assay: ROS detection by dihydroethidium; details: day three
Method: ROS detection in U87 cells was performed using 2′,7′-dichlorofluorescin diacetate (Sigma™, D883). Cells were treated with control and siC9 siRNA. After 3 days, cells were washed with phenol red-free DMEM (ThermoFisher™, 21063029). Cells then were incubated with 20 μM DCFDA for 40 minutes at 37° C. Cells then were washed with phenol red-free DMEM. Then signal was read at Ex/Em: 485/535 nm using Synergy H1 Hybrid™ Multi-Mode Microplate reader by Biotek™. Quantitation was done after removal of background. Additionally, dihydroethidium (EMD Millipore™ 309800) was used. U87 cells were treated as described above. At day 3, cells were incubated with DHE for 30 minutes at 37° C. […]
For the above reasons, whether C9 KD may lead to increase ROS production was investigated. […] C9 was knocked down in U87 cells with two independent siRNAs and the ROS levels were measured after KD. […]
For the data presented in FIG. 21, U87 cells were treated with control (siCtrl) and C9 (siC9; SEQ ID NO:631) siRNA and on day three ROS levels measured by DCFDA and dihydroethidium. FIG. 21A presents data for fluorescent intensity between control (siCtrl) and C9 KD (siC9) cells as measured by DCFDA. […] FIG. 21C presents fluorescent intensity quantitation for about 30 cells from the dihydroethidium experiments (n=3). Statistical significance was assessed by an unpaired t-test: NS P>0.05, *P≤0.05, **P≤0.01, ***P≤0.001 ****P≤0.0001. […]

U87 cells [4] = assay: Vacuole quantitation in phase contrast images after C9 KD; details: 3 days, vs siCtrl
Method: For siRNA knockdown experiments, siRNAs targeting C9 mRNA were designed with the Whitehead website (sirna.wi.mit.edu) and with RNAxs webserver (rna.tbi.univie.ac.at/cgi-bin/RNAxs). All siRNAs were obtained from GenePharma™. Lipofectamine RNAiMAX (Thermo Scientific™) was used as the transfection reagent for all siRNA experiments (according to the manufacturer's instructions). siRNA concentration was 40 nM per 60 mm plate. After 6 hours, media was changed and cells were treated again with siRNA after 48 hours. For RNA and protein analysis, cells were harvested after 48 hours following the second treatment. All KD experiments were performed in three biological replicates. The siRNA sequences were as follows: […] (SEQ ID NO:631; sense) and […] (SEQ ID NO:632; antisense); and GCACAUAUGGACUAUCAAUtt (SEQ ID NO:633; sense) and AUUGAUAGUCCAUAUGUGCtg (SEQ ID NO:634; antisense). The lower case letters in the sequence indicate location where optional modifications can be placed to enhance stability of the RNA.
The vacuoles were examined in order to reveal the mechanism by which C9 protein levels contribute to vacuole initiation. […] The number of vacuoles per cell were counted using imageJ™ from 3 biological replicates and a total of about 50 cells were quantitated, each dot representing a measurement of vacuoles per one cell FIG. 2A). […] Statistical significance was assessed by two tailed t-test. […]

In the case of “siC9: siRNA targeting C9 mRNA: UUAAUGAAACAAUAAUCACUC (SEQ ID NO:631; sense) and GUGAUUAUUGUUUCAUUAAUC (SEQ ID NO:632; antisense) (listed as RNA, chemistry not given here)”, the “vacuole appearance in TEM” value (U87 cells [1]) is reported as “electron-transparent and had a single membrane”, the “decrease in G1” value (U87 cells [2]) is reported as 4.7 fold and the “increase in S phase” value (U87 cells [2]) is reported as 3.3 fold. The “increase in SubG1 phase” value (U87 cells [2]) was 3.1 fold, the mitochondrial organization (p53 null U87 cells) was “caused mitochondrial disorganization” and the “ROS (dihydroethidium)” value (U87 cells [3]) was “significant upregulation of ROS”. The size of vacuoles (U87 cells [4]) was “significant increase” and the “total vacuoles per cell” value (U87 cells [4]) was “significant increase”.
